What was measured:
[1] = test system: Colletotrichum lagenarium; conditions: 200 ppm spray on cucumber (3 leaf stage), inoculated next day; lesion numbers on first and second leaves after 7 days in green house, graded by Table 5
Pyricularia oryzae = type: in vivo; conditions: 200 ppm spray on rice (Koshihikari, 3 leaf stage), inoculated next day; lesion numbers on third leaves after 7 days in green house, graded by Table 5

Structure (SMILES) | Evaluation (effect for cucumber anthracnose) [1] | Evaluation (effect for rice blast) (Pyricularia oryzae)
CCCCCC#Cc1cc(CNC(=O)c2ccc(OC)cc2)on1 [III-248, N-{[3-(1-heptynyl)-5-isoxazolyl]methyl}-4-methoxybenzamide] | 2 (11˜20) | 3 (6˜10)
COc1ccc(C(=O)NCc2cc(C(OC)OC)no2)cc1 [III-249, N-[(3-dimethoxymethyl-5-isoxazolyl)methyl]-4-methoxybenzamide] | 2 (11˜20) | 2 (11˜20)
COc1ccc(C(=O)NCc2cc(ON=C(C)C)no2)cc1 [III-250, N-[(3-isopropyliminoxy-5-isoxazolyl)methyl]-4-methoxybenzamide] | 2 (11˜20) | 2 (11˜20)
Cc1ccc(C(=O)NCc2cc(CC(C)C)no2)cc1 [III-251, N-[(3-isobutyl-5-isoxazolyl)methyl]-4-methylbenzamide] | 5 (0) | 5 (0)
CC(C)Cc1cc(CNC(=O)c2ccc(Cl)cc2)on1 [III-252, N-[(3-isobutyl-5-isoxazolyl)methyl]-4-chlorobenzamide] | 5 (0) | 5 (0)
CC(C)Cc1cc(CNC(=O)c2ccc(Cl)cc2Cl)on1 [III-253, N-[(3-isobutyl-5-isoxazolyl)methyl]-2,4-dichlorobenzamide] | 5 (0) | 5 (0)
CC(C)Cc1cc(CNC(=O)c2ccc(Cl)c(Cl)c2)on1 [III-255, N-[(3-isobutyl-5-isoxazolyl)methyl]-3,4-dichlorobenzamide] | 4 (1˜5) | 4 (1˜5)
CC(C)Cc1cc(CNC(=O)c2ccc(Br)cc2)on1 [III-256, N-[(3-isobutyl-5-isoxazolyl)methyl]-4-bromobenzamide] | 5 (0) | 5 (0)
CC(C)Cc1cc(CNC(=O)c2ccc(C(F)(F)F)cc2)on1 [III-257, N-[(3-isobutyl-5-isoxazolyl)methyl]-4-trifluoromethylbenzamide] | 4 (1˜5) | 3 (6˜10)
CCc1ccc(C(=O)NCc2cc(CC(C)C)no2)cc1 [III-258, N-[(3-isobutyl-5-isoxazolyl)methyl]-4-ethylbenzamide] | 4 (1˜5) | 5 (0)
CC(C)Cc1cc(CNC(=O)c2ccc3ccccc3c2)on1 [III-259, N-[(3-isobutyl-5-isoxazolyl)methyl]-2-naphthalenecarboxamide] | 4 (1˜5) | 5 (0)
CC(C)Cc1cc(CNC(=O)c2cccc3ccccc23)on1 [III-262, N-[(3-isobutyl-5-isoxazolyl)methyl]-1-naphthalenecarboxamide] | 5 (0) | 5 (0)
CCCc1cc(CNC(=O)c2ccc(Cl)cc2)on1 [III-263, N-[(3-propyl-5-isoxazolyl)methyl]-4-chlorobenzamide] | 5 (0) | 5 (0)
CCCc1cc(CNC(=O)c2ccc(Br)cc2)on1 [III-264, N-[(3-propyl-5-isoxazolyl)methyl]-4-bromobenzamide] | 5 (0) | 5 (0)
CCCc1cc(CNC(=O)c2ccc(Cl)cc2Cl)on1 [III-265, N-[(3-propyl-5-isoxazolyl)methyl]-2,4-dichlorobenzamide] | 4 (1˜5) | 5 (0)
O=C(NCc1cc(CBr)no1)c1ccc(Cl)cc1Cl [III-275, N-[(3-bromomethyl-5-isoxazolyl)methyl]-2,4-dichlorobenzamide] | 2 (11˜20) | 2 (11˜20)
O=C(NCc1cc(Cc2ccccc2)no1)c1ccccc1 [IV-1, N-[(3-benzyl-5-isoxazolyl)methyl]benzamide] | 5 (0) | 5 (0)
COc1ccc(C(=O)NCc2cc(Cc3ccccc3)no2)cc1 [IV-2, N-[(3-benzyl-5-isoxazolyl)methyl]-4-methoxybenzamide] | 5 (0) | 5 (0)
Cc1ccc(C(=O)NCc2cc(Cc3ccccc3)no2)cc1 [IV-3, N-[(3-benzyl-5-isoxazolyl)methyl]-4-methylbenzamide] | 5 (0) | 5 (0)
O=C(NCc1cc(Cc2ccccc2)no1)C1CCCCC1 [IV-4, (3-benzyl-5-isoxazolyl)methylaminocarbonylcyclohexane] | 4 (1˜5) | 4 (1˜5)

Structure (SMILES) | Evaluation (effect for cucumber anthracnose) [1] | Evaluation (effect for rice blast) (Pyricularia oryzae)
COc1ccc(Cc2cc(CNC(=O)c3ccc(OC)cc3)on2)cc1 [IV-9, N-{[3-(4-methoxybenzyl)-5-isoxazolyl]methyl}-4-methoxybenzamide] | 5 (0) | 5 (0)
Cc1ccc(Cc2cc(CNC(=O)c3ccc(C)cc3)on2)cc1 [IV-10, N-{[3-(4-methylbenzyl)-5-isoxazolyl]methyl}-4-methylbenzamide] | 5 (0) | 5 (0)
Cc1ccc(C(=O)NCc2cc(Cc3cccc(C)c3)no2)cc1 [IV-11, N-{[3-(3-methylbenzyl)-5-isoxazolyl]methyl}-4-methylbenzamide] | 5 (0) | 5 (0)
Cc1ccc(C(=O)NCc2cc(Cc3ccccc3C)no2)cc1 [IV-12, N-{[3-(2-methylbenzyl)-5-isoxazolyl]methyl}-4-methyl benzamide] | 5 (0) | 5 (0)
CC(c1ccccc1)c1cc(CNC(=O)c2ccccc2)on1 (centres unmarked) [IV-29, N-{[3-(1-phenylethyl)-5-isoxazolyl]methyl}benzamide] | 3 (6˜10) | 3 (6˜10)
O=C(NCc1cc(CCc2ccccc2)no1)c1ccccc1 [IV-33, N-{[3-(2-phenylethyl)-5-isoxazolyl]methyl}benzamide] | 5 (0) | 5 (0)
COc1ccc(C(=O)NCc2cc(CCc3ccccc3)no2)cc1 [IV-34, N-{[3-(2-phenylethyl)-5-isoxazolyl]methyl}-4-methoxybenzamide] | 5 (0) | 5 (0)
Cc1ccc(C(=O)NCc2cc(CCc3ccccc3)no2)cc1 [IV-35, N-{[3-(2-phenylethyl)-5-isoxazolyl]methyl}-4-methylbenzamide] | 5 (0) | 5 (0)
Cc1ccc(C(=O)NCc2cc(CSc3ccccc3)no2)cc1 [IV-40, N-[(3-phenylthiomethyl-5-isoxazolyl)methyl]-4-methylbenzamide] | 2 (11˜20) | 3 (6˜10)
O=C(NCc1cc(COc2ccccc2)no1)c1ccccc1 [IV-44, N-[(3-phenoxymethyl-5-isoxazolyl)methyl]benzamide] | 5 (0) | 5 (0)
COc1ccc(C(=O)NCc2cc(COc3ccccc3)no2)cc1 [IV-45, N-[(3-phenyloxymethyl-5-isoxazolyl)methyl]-4-methoxy benzamide] | 5 (0) | 5 (0)
Cc1ccc(C(=O)NCc2cc(COc3ccccc3)no2)cc1 [IV-46, N-[(3-phenoxymethyl-5-isoxazolyl)methyl]-4-methylbenzamide] | 5 (0) | 5 (0)
COc1ccc(C(=O)NCc2cc(COc3ccccc3C)no2)cc1 [IV-47, N-{[3-(2-methylphenyl)oxymethyl-5-isoxazolyl]methyl}-4-methoxy benzamide] | 5 (0) | 5 (0)
COc1ccc(C(=O)NCc2cc(COc3cccc(C)c3)no2)cc1 [IV-48, N-{[3-(3-methylphenyl)oxymethyl-5-isoxazolyl]methyl}-4-methoxybenzamide] | 2 (11˜20) | 3 (6˜10)
Cc1ccc(C(=O)NCc2cc(COc3cccc(C)c3)no2)cc1 [IV-49, N-{[3-(3-methylphenyl)oxymethyl-5-isoxazolyl]methyl}-4-methylbenzamide] | 2 (11˜20) | 2 (11˜20)
COc1ccc(C(=O)NCc2cc(COc3ccc(C)cc3)no2)cc1 [IV-50, N-{[3-(4-methylphenyl)oxymethyl-5-isoxazolyl]methyl}-4-methoxybenzamide] | 4 (1˜5) | 5 (0)
COc1ccc(C(=O)NCc2cc(COc3cccc(C#N)c3)no2)cc1 [IV-52, N-{[3-(3-cyanophenyl)oxymethyl-5-isoxazolyl]methyl}-4-methoxybenzamide] | 2 (11˜20) | 3 (6˜10)
COc1ccc(C(=O)NCc2cc(COc3ccc(C#N)cc3)no2)cc1 [IV-53, N-([3-(4-cyanophenyl)oxymethyl-5-isoxazolyl]methyl}-4-methoxybenzamide] | 5 (0) | 5 (0)
COc1ccc(C(=O)NCc2cc(COc3ccccc3OC)no2)cc1 [IV-54, N-{[3-(2-methoxyphenyl)oxymethyl-5-isoxazolyl]methyl}-4-methoxybenzamide] | 4 (1˜5) | 3 (6˜10)
COc1ccc(C(=O)NCc2cc(COc3cccc(OC)c3)no2)cc1 [IV-55, N-{[3-(3-methoxyphenyl)oxymethyl-5-isoxazolyl]methyl}-4-methoxybenzamide] | 4 (1˜5) | 4 (1˜5)
